Measurements from article PMC4281356, “Uptake of the antisecretory factor peptide AF-16 in rat blood and cerebrospinal fluid and effects on elevated intracranial pressure” (Acta Neurochirurgica, 2014).
“And” between values parts separate entries of the source, which are not always exact repeats. Equal entries are not always repeated. Residues, ends and D or L forms follow the SMILES beside them.

Legend:
[1] = Side effects of AF-16 treatment in animals; type: in vivo; settings: experimental conditions in animals
[2] = AF-16 concentration in CSF after intranasal or i.v. administration (estimated from radioactivity of 14C-AF-16); type: in vivo, rat; settings: for Concentration of AF-16 in CSF: estimated from 14C radioactivity, mean ± SEM
Method: (§1) The test protocol was approved by the Regional Animal Experiments Ethical Committee and performed in accordance with guidelines for animal experiments (EC Directive 86/609/EEC). Male Sprague–Dawley rats, 180 ± 20 g body weight (Nova-SCB, Sollentuna, Sweden) were used. The rats were allowed a week for general adaptation in their cages before any form of experimental procedure was performed. All rats had free access to water and pelleted food during the whole experimental period. The temperature and air ventilation in the animal quarters were monitored according to standard procedures.
(§2) The operation procedure started with general anaesthesia via inhalation of Isoflurane (4 % induction, 1.5–2 % maintenance in air), after which the anaesthetised rat was positioned on the abdomen on a heating pad. The body temperature was monitored via a rectal thermo-coupled probe, and a heated blanket was placed underneath the rat in order to keep the temperature at 37 °C. The head was shaved and the skin washed with 70 % alcohol, followed by a subcutaneous injection of Marcaine. A 3– to 4-cm-long midline incision was made through the skin and fascia on the skull vault. The skull bone was freed from adherent connective tissue and a copper rod (144 g) with a tip diameter of 4 mm was immersed in liquid nitrogen and then applied to the right parietal bone for 90 s. […] The resulting lesion volume was calculated after termination of the experiments (see below). Uninjured rats were used as controls.
(§3) Rats were anaesthetised with Isoflurane 24 h after the cryogenic brain injury. The rats were given a single dose of 25 μl of AF-16 (2,000 μg/ml in phosphate buffered saline, PBS) or ^14C-AF-16 in each nostril and were then placed on their backs to make sure the AF-16 solution was absorbed appropriately. After 5–8 min they had recovered from anaesthesia, were fully awake and moved freely in the cage. Control, injured rats received the same volume of vehicle (PBS) only. ICP recordings for statistical calculations were collected for a 20-min-long period, starting after the animals were fully awake and the ICP values were stable and back to pre-anaesthesia levels.
(§4) The collection of blood and CSF was done in a separate set of experiments. ^14C-Labelled or unlabelled AF-16 was given by intranasal (see above) or i.v. administration via the penis vein (25 μl in a volume of 0.5 ml). For measurement of blood concentration of AF-16 the heart was punctured from the right thoracic cavity with an O.D. 1.22/60 mm injection needle. When 10–12 ml of blood had been collected, the thorax was opened and the rats were terminated by removing the heart. Immediately after termination, the rats were placed on the abdomen. For measurement of CSF levels of AF-16 the dura over cisterna magna was micro-surgically exposed by dissecting the neck muscles laterally, a procedure which uncovers the midline. The dura was subsequently punctured by a Neoflon i.v. cannula, outer diameter 0.6 mm, length 19 mm. After removing the needle from the cannula, 50–100 μl of CSF could be aspired without being contaminated with blood.
(§5) A Bachem AF-16 Enzyme Immunoassay kit (item S-1403) was used. Heparin-treated blood samples were mixed with an equal volume of Alsevers citrate solution (glucose, 0.1 M, sodium citrate 2-hydrate, 0.03 M, sodium chloride, 0.07 M). The blood samples were stored frozen for up to 1 month at −20 °C. The laboratory procedure followed Protocol III in the Bachem kit manual, but some critical points should be emphasised. […]

[3] = AF-16 concentration in plasma after intranasal or i.v. administration (Bachem AF-16 Enzyme Immunoassay); type: in vivo, rat; settings: for Concentration of AF-16 in plasma: experimental rats (cryogenic brain injury); for Concentration of AF-16 in plasma / level at 0.5 h: sample 30 min after dosing, enzyme immunoassay, mean ± SEM; for level at 0.5 h: male, Sprague-Dawley, rat, plasma, control (uninjured) rats
Method: as §1, §2, §3, §4
as §5, with “emphasised. The standard AF-16 was dissolved and diluted in normal blood plasma; the standards S1-S6 (0.2–200 ng/ml, corresponding to 0.114–114 nM) and normal plasma S0 were distributed into smaller aliquots (e.g. 200 μl) and frozen at −20 °C until use. The standard is not stable in buffered saline at these concentrations.” for “emphasised.”

[4] = Autoradiography of 14C-AF-16 distribution in the brain after intranasal administration; type: in vivo, rat; settings: control uninjured rats (n = 10), one intranasal dose, 30 min, 10 μm cryosections, X-ray film
Method: The distribution of ^14C-AF-16 in the brain after intranasal administration was investigated in a separate set of experiments. Control, uninjured rats (n = 10) received one intranasal dose of ^14C-AF-16. Thirty minutes later the rats were terminated and the brains were dissected out as described above. Frontal slices were cut, about 3 mm thick, immersed in 10 % sucrose in PBS overnight and then frozen in liquid nitrogen. Cryosections, cut at 10 μm, were prepared, air dried and exposed to Biomax AR autoradiography film (Kodak).

Molecule | Side effects of treatment [1] | Concentration of AF-16 in CSF ([2]; control (uninjured) rats, i.v., CSF from cisterna magna 30 min after dosing, n = 6) | Concentration of AF-16 in CSF ([2]; control (uninjured) rats, intranasal, CSF 30 min after dosing, n = 9) | Concentration of AF-16 in CSF ([2]; experimental rats (cryogenic brain injury), i.v., CSF from cisterna magna 30 min after dosing, n = 7) | Concentration of AF-16 in CSF ([2]; experimental rats (cryogenic brain injury), intranasal, CSF 30 min after dosing, n = 9, p = 0.01 vs control) | Decrease of AF-16 in CSF between 15 and 30 min ([2]; normal rats, intranasal 0.3 μmol/kg) | Concentration of AF-16 in plasma relative to CSF ([3]; control and injured rats, 30 min after intranasal or i.v. administration) | Concentration of AF-16 in plasma ([3]; i.v. via penis vein (25 μl in 0.5 ml), n = 7) | Concentration of AF-16 in plasma ([3]; intranasal (25 μl of 2,000 μg/ml in PBS in each nostril), n = 9) | level at 0.5 h ([3]; inhaled or intranasal, 100 ug per rat, intranasal (25 μl of 2,000 μg/ml in PBS in each nostril), n = 9) | level at 0.5 h ([3]; iv, 25 ul in a volume of 0.5 ml, i.v. via penis vein (25 μl in 0.5 ml), n = 7) | Concentration of AF-16 in plasma relative to CSF ([3]; normal rats, intranasal 0.3 μmol/kg in 25 μl, 15 and 30 min after deposition) | Change of plasma level between 15 and 30 min ([3]; normal rats, intranasal 0.3 μmol/kg, p < 0.03) | Distribution in the brain by autoradiography [4]
CC(C)C[C@H](NC(=O)CNC(=O)[C@@H](NC(=O)[C@H](CC(N)=O)NC(=O)[C@H](CC(N)=O)NC(=O)[C@H](CCC(=O)O)NC(=O)[C@@H]1CCCN1C(=O)[C@H](CC(N)=O)NC(=O)[C@H](CO)NC(=O)[C@H](CCCNC(=N)N)NC(=O)[C@@H](NC(=O)[C@H](CCCCN)NC(=O)[C@H](CO)NC(=O)[C@H](Cc1c[nH]cn1)NC(=O)[C@H](CS)NC(=O)[C@@H](N)C(C)C)[C@@H](C)O)C(C)C)C(=O)O [AF-16] (H-VCHSKTRSNPENNVGL-OH) | No side effects | 1.1 ± 0 ng/mL | 0.6 ng/mL and 0.6 ± 0.1 ng/mL | 1.1 ± 0.1 ng/mL | 1.3 ng/mL and 1.3 ± 0.2 ng/mL | not statistically significant | about ten-times higher in plasma than in CSF | 14.5 ± 0.9 ng/mL | 8.7 ± 0.5 ng/mL | 7.8 ± 0.7 ng/mL | 14.7 ± 0.6 ng/mL | about ten-times higher in plasma than in CSF | decreased significantly | –
VCHSKTRSNPENNVGL [^14C-AF-16] | – | – | – | – | – | – | – | – | – | – | – | – | – | detected in the brain ventricles/choroid plexus
